Target: human indoleamine 2,3-dioxygenase (hIDO) (Homo sapiens, UniProt P14902)
Experiment: hIDO enzyme activity in solution studies (binding to the Si site)
Type: biochemical
Details: for effect of binding to the Si site on the enzyme activity: solution data
Description: The existence of the Si site in hIDO was first proposed by us in 2009 based on solution studies (8). […] It is notable that for decades MitoC has been widely used as a chemotherapy drug for several types of cancer (9).

Sequence of human indoleamine 2,3-dioxygenase (hIDO) (P14902 whole entry): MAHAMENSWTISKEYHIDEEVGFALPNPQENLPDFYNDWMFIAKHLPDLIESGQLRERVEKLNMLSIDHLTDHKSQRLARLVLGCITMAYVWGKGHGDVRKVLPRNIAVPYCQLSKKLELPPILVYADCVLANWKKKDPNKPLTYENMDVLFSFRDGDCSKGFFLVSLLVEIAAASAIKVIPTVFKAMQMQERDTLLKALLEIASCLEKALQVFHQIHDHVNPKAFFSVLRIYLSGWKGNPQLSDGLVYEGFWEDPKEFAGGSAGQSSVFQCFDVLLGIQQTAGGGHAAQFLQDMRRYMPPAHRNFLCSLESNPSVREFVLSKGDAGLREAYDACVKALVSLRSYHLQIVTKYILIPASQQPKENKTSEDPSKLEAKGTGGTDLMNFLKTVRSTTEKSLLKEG

CO[C@@]12[C@H](COC(N)=O)C3=C(C(=O)C(C)=C(N)C3=O)N1C[C@@H]1N[C@@H]12 [MitoC, Mitomycin C]
effect of binding to the Si site on the enzyme activity: inhibiting the enzyme activity | Ki (uncompetitive inhibition of hIDO by binding to the Si site): 25 µM

N[C@@H](Cc1c[nH]c2ccccc12)C(=O)O [Trp, tryptophan]
effect of binding to the Si site on the enzyme activity: inhibits the enzyme activity
